This test has as its target T1, hFASN enzyme (full length) (Homo sapiens, UniProt P49327).
T1 construct: 10 μL hFASN enzyme (full length, 300 ng, purified in house); made in house
As to the kind of experiment: Fatty Acid Synthase (FASN) inhibition scintillation proximity assay. Type of test: biochemical. Particulars: for inhibition at 10 µM: read-out: Human FASN % inhibition @ 10 μM, 10 μM test compound; for IC50: read-out: Human FASN pIC50 (converted). The gist of the method: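 Scintillation proximity format: in-house full-length enzyme, 300 ng per well, pH 7.5 phosphate/DTT buffer, ³H-acetyl-CoA and malonyl-CoA. Emission counted on LEADseeker at 610 nm at least 24 h after stopping.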
Background: SPA uses beads or plates that emit light when radiolabelled molecules are held near them.

T1 sequence (P49327 whole entry): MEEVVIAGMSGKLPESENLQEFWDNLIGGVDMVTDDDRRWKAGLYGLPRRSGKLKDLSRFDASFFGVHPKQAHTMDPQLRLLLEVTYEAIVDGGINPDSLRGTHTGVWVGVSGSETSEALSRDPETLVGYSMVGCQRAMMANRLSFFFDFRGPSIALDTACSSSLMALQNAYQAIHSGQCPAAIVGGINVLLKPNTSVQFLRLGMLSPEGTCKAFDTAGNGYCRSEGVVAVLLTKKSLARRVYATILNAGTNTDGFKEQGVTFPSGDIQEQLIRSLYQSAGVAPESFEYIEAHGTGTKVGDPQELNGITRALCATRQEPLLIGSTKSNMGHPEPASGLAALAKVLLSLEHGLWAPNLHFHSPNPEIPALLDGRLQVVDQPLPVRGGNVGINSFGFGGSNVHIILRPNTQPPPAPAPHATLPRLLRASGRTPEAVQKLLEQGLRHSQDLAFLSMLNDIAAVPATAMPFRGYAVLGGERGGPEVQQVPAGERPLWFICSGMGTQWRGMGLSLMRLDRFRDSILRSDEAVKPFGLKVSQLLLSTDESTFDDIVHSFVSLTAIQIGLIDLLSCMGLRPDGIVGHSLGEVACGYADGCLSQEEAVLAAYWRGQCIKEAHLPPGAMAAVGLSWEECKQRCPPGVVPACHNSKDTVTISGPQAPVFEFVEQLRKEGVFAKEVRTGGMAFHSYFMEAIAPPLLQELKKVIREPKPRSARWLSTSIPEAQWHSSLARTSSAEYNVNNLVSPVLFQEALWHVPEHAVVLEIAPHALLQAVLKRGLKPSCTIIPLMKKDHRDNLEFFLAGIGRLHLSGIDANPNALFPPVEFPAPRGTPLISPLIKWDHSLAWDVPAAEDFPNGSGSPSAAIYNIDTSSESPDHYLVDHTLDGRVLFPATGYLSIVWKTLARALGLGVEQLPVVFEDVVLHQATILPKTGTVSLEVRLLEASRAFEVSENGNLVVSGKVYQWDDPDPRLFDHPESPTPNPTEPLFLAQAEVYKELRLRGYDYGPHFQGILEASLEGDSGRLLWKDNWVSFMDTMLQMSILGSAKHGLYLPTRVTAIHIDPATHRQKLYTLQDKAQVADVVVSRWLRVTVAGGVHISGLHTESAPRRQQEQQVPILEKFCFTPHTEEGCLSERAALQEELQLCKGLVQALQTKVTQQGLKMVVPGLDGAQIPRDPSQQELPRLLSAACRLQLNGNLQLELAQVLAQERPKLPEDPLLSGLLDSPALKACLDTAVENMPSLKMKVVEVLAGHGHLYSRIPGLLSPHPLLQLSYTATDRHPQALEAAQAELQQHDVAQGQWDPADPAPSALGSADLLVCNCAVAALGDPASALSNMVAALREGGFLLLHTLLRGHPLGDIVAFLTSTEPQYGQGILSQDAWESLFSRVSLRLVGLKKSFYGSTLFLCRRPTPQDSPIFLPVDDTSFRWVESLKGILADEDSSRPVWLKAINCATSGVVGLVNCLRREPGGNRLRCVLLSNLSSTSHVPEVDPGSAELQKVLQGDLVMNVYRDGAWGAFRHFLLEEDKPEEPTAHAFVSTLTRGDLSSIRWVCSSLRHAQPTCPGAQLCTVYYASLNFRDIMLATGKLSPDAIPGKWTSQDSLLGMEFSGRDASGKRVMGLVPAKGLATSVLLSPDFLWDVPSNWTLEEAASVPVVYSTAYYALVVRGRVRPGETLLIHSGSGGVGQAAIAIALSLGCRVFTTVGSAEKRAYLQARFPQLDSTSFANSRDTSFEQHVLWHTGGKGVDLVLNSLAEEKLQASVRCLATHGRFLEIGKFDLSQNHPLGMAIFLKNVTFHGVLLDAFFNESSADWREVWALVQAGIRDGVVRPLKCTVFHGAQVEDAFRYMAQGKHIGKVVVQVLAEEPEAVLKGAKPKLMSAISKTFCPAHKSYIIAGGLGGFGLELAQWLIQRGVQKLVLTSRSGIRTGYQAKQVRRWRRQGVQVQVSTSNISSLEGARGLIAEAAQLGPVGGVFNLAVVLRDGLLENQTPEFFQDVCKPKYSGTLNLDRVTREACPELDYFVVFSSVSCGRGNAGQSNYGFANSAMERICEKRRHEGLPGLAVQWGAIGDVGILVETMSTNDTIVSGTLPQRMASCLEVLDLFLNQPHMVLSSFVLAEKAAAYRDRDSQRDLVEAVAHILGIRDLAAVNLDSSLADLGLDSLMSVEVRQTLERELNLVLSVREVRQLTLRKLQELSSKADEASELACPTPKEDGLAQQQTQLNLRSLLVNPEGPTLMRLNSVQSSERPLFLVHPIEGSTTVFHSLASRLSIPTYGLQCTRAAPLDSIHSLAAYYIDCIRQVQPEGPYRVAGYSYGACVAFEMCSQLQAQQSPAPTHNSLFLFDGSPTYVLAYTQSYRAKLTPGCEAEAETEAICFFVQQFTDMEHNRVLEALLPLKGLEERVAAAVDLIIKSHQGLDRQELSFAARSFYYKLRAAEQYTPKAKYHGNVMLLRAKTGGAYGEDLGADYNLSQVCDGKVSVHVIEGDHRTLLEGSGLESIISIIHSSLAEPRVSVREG

Take `COC(=O)N1CC2(C1)N=C(c1ccc(-c3ccc4cccnc4c3)cc1)N(C[C@@H]1CCN(C(=O)N3CCCC3)C1)C2=O` [compound 732, Methyl 8-oxo-7-{[(3S)-1-(pyrrolidin-1-ylcarbonyl)pyrrolidin-3-yl]methyl}-6-(4-quinolin-7-ylphenyl)-2,5,7-triazaspiro[3.4]oct-5-ene-2-carboxylate]: the inhibition at 10 µM is 88% and the IC50 is around 1.2 µM.
As to `COC(=O)N1CC2(C1)N=C(c1ccc(-c3ccc4occc4c3)cc1)N(C[C@@H]1CCN(C(=O)C(C)O)C1)C2=O` (stereo partly drawn) [compound 734, Methyl 6-[4-(1-benzofuran-5-yl)phenyl]-7-{[(3R)-1-(2-hydroxypropanoyl)pyrrolidin-3-yl]methyl}-8-oxo-2,5,7-triazaspiro[3.4]oct-5-ene-2-carboxylate], the inhibition at 10 µM worked out at 84% and the IC50 is 1.7 µM.
For the molecule `COC(=O)N1CC2(C1)N=C(c1ccc(-c3ccc4c(cnn4C)c3)cc1)N(C[C@@H]1CCN(C(=O)C(C)O)C1)C2=O` (stereo partly drawn) [compound 738, Methyl 7-{[(3R)-1-(2-hydroxypropanoyl)pyrrolidin-3-yl]methyl}-6-[4-(1-methyl-1H-indazol-5-yl)phenyl]-8-oxo-2,5,7-triazaspiro[3.4]oct-5-ene-2-carboxylate], the inhibition at 10 µM was found to be 80% and the IC50 was 1.91 µM.
With `COC(=O)N1CC2(C1)N=C(c1ccc(-c3ccc4c(cnn4C)c3)cc1)N(C[C@@H]1CCN(C(=O)N3CCCC3)C1)C2=O` [compound 740, Methyl 6-[4-(1-methyl-1H-indazol-5-yl)phenyl]-8-oxo-7-{[(3S)-1-(pyrrolidin-1-ylcarbonyl)pyrrolidin-3-yl]methyl}-2,5,7-triazaspiro[3.4]oct-5-ene-2-carboxylate], the inhibition at 10 µM turned out to be 46% and the IC50 is 8.91 µM.
`CC(C)C(=O)N1CCC2(CC1)N=C(c1ccc(-c3ccc4[nH]ncc4c3)cc1)N(CC1CN(C(=O)C3CC3)C1)C2=O` [compound 754, 3-{[1-(Cyclopropylcarbonyl)azetidin-3-yl]methyl}-2-[4-(1H-indazol-5-yl)phenyl]-8-(2-methylpropanoyl)-1,3,8-triazaspiro[4.5]dec-1-en-4-one]: the inhibition at 10 µM stood at 67% and the IC50 was 2.95 µM.
Take `COCCN1CCC2(CC1)N=C(c1ccc(-c3ccc4[nH]ncc4c3)cc1)N(CC1CN(C(=O)C3CC3)C1)C2=O` [compound 756]: the inhibition at 10 µM is 82% and the IC50 is 1.58 µM.
The like results for `O=C(C1CC1)N1CC(CN2C(=O)C3(CCN(CCO)CC3)N=C2c2ccc(-c3ccc4[nH]ncc4c3)cc2)C1` [compound 758, 3-{[1-(Cyclopropylcarbonyl)azetidin-3-yl]methyl}-8-(2-hydroxyethyl)-2-[4-(1H-indazol-5-yl)phenyl]-1,3,8-triazaspiro[4.5]dec-1-en-4-one] were, in that order, 71% and 3.39 µM.
With `Cn1cc(-c2ccc(-c3ccc(C4=NC5(CCNCC5)C(=O)N4CC4CN(C(=O)C5CC5)C4)cc3)cc2)cn1` [compound 759, 3-{[1-(Cyclopropylcarbonyl)azetidin-3-yl]methyl}-2-[4′-(1-methyl-1H-pyrazol-4-yl)biphenyl-4-yl]-1,3,8-triazaspiro[4.5]dec-1-en-4-one], the inhibition at 10 µM stood at 38% and the IC50 is 9.12 µM.
The like results for `CS(=O)(=O)N1CCC2(CC1)N=C(c1ccc(-c3ccc4occc4c3)cc1)N(CC1CN(C(=O)C3CC3)C1)C2=O` [compound 760, 2-[4-(1-Benzofuran-5-yl)phenyl]-3-{[1-(cyclopropylcarbonyl)azetidin-3-yl]methyl}-8-(methylsulfonyl)-1,3,8-triazaspiro[4.5]dec-1-en-4-one] were, in that order, 62% and 4.79 µM.
Regarding `Cn1ncc2cc(-c3ccc(C4=NC5(CCN(S(C)(=O)=O)CC5)C(=O)N4CC4CN(C(=O)C5CC5)C4)cc3)ccc21` [compound 761, 3-{[1-(Cyclopropylcarbonyl)azetidin-3-yl]methyl}-2-[4-(1-methyl-1H-indazol-5-yl)phenyl]-8-(methylsulfonyl)-1,3,8-triazaspiro[4.5]dec-1-en-4-one], the inhibition at 10 µM is 45% and the IC50 is around 7.59 µM.
Take `CS(=O)(=O)N1CCC2(CC1)N=C(c1ccc(-c3ccc4[nH]ncc4c3)cc1)N(CC1CN(C(=O)C3CC3)C1)C2=O` [compound 763, 3-{[1-(Cyclopropylcarbonyl)azetidin-3-yl]methyl}-2-[4-(1H-indazol-5-yl)phenyl]-8-(methylsulfonyl)-1,3,8-triazaspiro[4.5]dec-1-en-4-one]: the inhibition at 10 µM was 63% and the IC50 is around 5.37 µM.
`O=C(C1CC1)N1CC(CN2C(=O)C3(CCN(C(=O)C(F)(F)F)CC3)N=C2c2ccc(-c3ccc4occc4c3)cc2)C1` [compound 764, 2-[4-(1-Benzofuran-5-yl)phenyl]-3-{[1-(cycloprropylcarbonyl)azetidin-3-yl]methyl}-8-(trifluoroacetyl)-1,3,8-triazaspiro[4.5]dec-1-en-4-one]: the inhibition at 10 µM was 63% and the IC50 is around 4.37 µM.
Consider `O=C(C1CC1)N1CC(CN2C(=O)C3(CCN(C(=O)C(F)(F)F)CC3)N=C2c2ccc(-c3ccc4[nH]ncc4c3)cc2)C1` [compound 766, 3-{[1-(Cyclopropylcarbonyl)azetidin-3-yl]methyl}-2-[4-(1H-indazol-5-yl)phenyl]-8-(trifluoroacetyl)-1,3,8-triazaspiro[4.5]dec-1-en-4-one], for which the inhibition at 10 µM was 67% and the IC50 is around 4.47 µM.
For the molecule `CC(C)C(=O)N1CCC2(CC1)N=C(c1ccc(-c3ccc(-c4cnn(C)c4)cc3)cc1)N(CC1CN(C(=O)C3CC3)C1)C2=O` [compound 767, 3-{[1-(Cycloprropylcarbonyl)azetidin-3-yl]methyl}-8-(2-methylpropanoyl)-2-[4′-(1-methyl-1H-pyrazol-4-yl)biphenyl-4-yl]-1,3,8-triazaspiro[4.5]dec-1-en-4-one], the inhibition at 10 µM was determined as 76% and the IC50 is 1.91 µM.
As for `CN(C)CC(=O)N1CCC2(CC1)N=C(c1ccc(-c3ccc(-c4cnn(C)c4)cc3)cc1)N(CC1CN(C(=O)C3CC3)C1)C2=O` [compound 768, 3-{[1-(Cyclopropylcarbonyl)azetidin-3-yl]methyl}-8-(N,N-dimethylglycyl)-2-[4′-(1-methyl-1H-pyrazol-4-yl)biphenyl-4-yl]-1,3,8-triazaspiro[4.5]dec-1-en-4-one], the inhibition at 10 µM turned out to be 79% and the IC50 is 1.45 µM.
The like results for `Cn1cc(-c2ccc(-c3ccc(C4=NC5(CCN(S(C)(=O)=O)CC5)C(=O)N4CC4CN(C(=O)C5CC5)C4)cc3)cc2)cn1` [compound 769, 3-{[1-(Cyclopropylcarbonyl)azetidin-3-yl]methyl}-2-[4′-(1-methyl-1H-pyrazol-4-yl)biphenyl-4-yl]-8-(methylsulfonyl)-1,3,8-triazaspiro[4.5]dec-1-en-4-one] were, in that order, 60% and 5.01 µM.
For `Cn1cc(-c2ccc(-c3ccc(C4=NC5(CCN(C(=O)C6CC6)CC5)C(=O)N4CC4CN(C(=O)C5CC5)C4)cc3)cc2)cn1` [compound 770, 8-(Cyclopropylcarbonyl)-3-{[1-(cyclopropylcarbonyl)azetidin-3-yl]methyl}-2-[4′-(1-methyl-1H-pyrazol-4-yl)biphenyl-4-yl]-1,3,8-triazaspiro[4.5]dec-1-en-4-one], the inhibition at 10 µM came out at 77% and the IC50 was 2.19 µM.
With `CC(C)N1CCC2(CC1)N=C(c1ccc(-c3ccc(-c4cnn(C)c4)cc3)cc1)N(CC1CN(C(=O)C3CC3)C1)C2=O` [compound 771, 3-{[1-(Cyclopropylcarbonyl)azetidin-3-yl]methyl}-8-(1-methylethyl)-2-[4′-(1-methyl-1H-pyrazol-4-yl)biphenyl-4-yl]-1,3,8-triazaspiro[4.5]dec-1-en-4-one], the inhibition at 10 µM was determined as 44% and the IC50 is 7.59 µM.
`Cn1cc(-c2ccc(-c3ccc(C4=NC5(CCN(CCO)CC5)C(=O)N4CC4CN(C(=O)C5CC5)C4)cc3)cc2)cn1` [compound 772, 3-{[1-(Cyclopropylcarbonyl)azetidin-3-yl]methyl}-8-(2-hydroxyethyl)-2-[4′-(1-methyl-1H-pyrazol-4-yl)biphenyl-4-yl]-1,3,8-triazaspiro[4.5]dec-1-en-4-one]: the inhibition at 10 µM worked out at 64% and the IC50 was 3.98 µM.
On to `Cc1cc(-c2ccc3c(cnn3C)c2)ccc1C1=NC2(CC2)C(=O)N1CC1CN(C(=O)C2(O)CCC2)C1` [compound 796, 6-((1-(1-hydroxycyclobutanecarbonyl)azetidin-3-yl)methyl)-5-(2-methyl-4-(1-methyl-1H-indazol-5-yl)phenyl)-4,6-diazaspiro[2.4]hept-4-en-7-one], for which the inhibition at 10 µM stood at 19% and the IC50 was above 10 µM.
The like results for `CC(C)(O)c1ccc(-c2ccc(C3=NC4(CC4)C(=O)N3CC3CN(C(=O)C4CC4)C3)cc2)cn1` [compound 797, 6-((1-(cyclopropanecarbonyl)azetidin-3-yl)methyl)-5-(4-(6-(2-hydroxypropan-2-yl)pyridin-3-yl)phenyl)-4,6-diazaspiro[2.4]hept-4-en-7-one] were, in that order, 1% and above 10 µM.
As to `O=C(C1CC1)N1CC(CN2C(=O)C3(CC3)N=C2c2ccc(-c3ccc(C4CC4)nc3)cc2)C1` [compound 798, 6-((1-(cyclopropanecarbonyl)azetidin-3-yl)methyl)-5-(4-(6-cyclopropylpyridin-3-yl)phenyl)-4,6-diazaspiro[2.4]hept-4-en-7-one], the inhibition at 10 µM came out at 30% and the IC50 is above 10 µM.
Consider `O=C(C1CC1)N1CC(CN2C(=O)C3(CC3)N=C2c2ccc(-c3cnc4ncccc4c3)cc2)C1` [compound 799, 5-(4-(1,8-baphthyridin-3-yl)phenyl)-6-((1-(cyclopropanecarbonyl)azetidin-3-yl)methyl)-4,6-diazaspiro[2.4]hept-4-en-7-one], for which the inhibition at 10 µM was 39% and the IC50 is above 10 µM.

By inhibition is commonly meant the relative decrease from the control value, in per cent.

For the origin of these results see patent US10077261B2, “Imidazolin-5-one derivative useful as FASN inhibitors for the treatment of cancer” (Janssen Pharmaceutica NV, priority 2012, dated 2018).
